Assay results published in PMC11547505 (Molecules, 2024).
Like-named read-outs stand apart in the source and are kept apart here.

What was measured:
[1] = test system: SARS-CoV-2; assay: Anti-SARS-CoV-2 virus yield reduction assay (qRT-PCR) on Vero cells; conditions: for Anti-SARS-CoV-2 Activity, % Inhibition at 10 µM: 0.1 MOI, virus yield reduction qRT-PCR; for EC50: read-out: Anti-SARS-CoV-2 Activity, EC50, antiviral dose–response, 2 days post-treatment
[2] = in vitro
[3] = target: SARS-CoV-2 2′-O-MTase (Nsp10–16) (Severe acute respiratory syndrome coronavirus 2, UniProt P0DTD1); assay: MTaseGlo coupled assay of Nsp10–16 RNA methyltransferase activity; assay type: biochemical; conditions: 25 nM Nsp10–16, 300 nM Cap-0 RNA, 5 µM SAM, 15 min; read-out: 2′-O-MTase Inhibition IC50
[4] = in vitro; conditions: African green monkey
[5] = test system: SARS-CoV-2; parameters: method as in PMID 33290767, PMID 35456990, PMID 33671463; conditions: Vero cells; read-out: IC50 against SARS-CoV-2; cited from earlier work
[6] = target: SARS-CoV-2 2′-O-MTase; parameters: method as in PMID 33874769; conditions: control nucleoside-based methyltransferase inhibitor; read-out: 2′-O-MTase Inhibition IC50; cited from earlier work
[7] = peripheral blood mononuclear (PBM) cells

Row | SMILES | Anti-SARS-CoV-2 Activity, % Inhibition at 10 µM [1] | EC50 [1] | CC50 [2] | IC50 [3] | CC50 [4] | IC50 [5] | CC50 [2, 7] | CC50 ([4]; Vero cells (kidney)) | IC50 [6]
1 | Cc1ccc2c(c1)-c1cc(C(=O)c3ccc(O)cc3O)c(O)cc1OC2(C)C [CPM-2, (2,4-dihydroxyphenyl)(3-hydroxy-6,6,9-trimethyl-6H-benzo[c]chromen-2-yl)methanone] | 98.1% | 8.6 µM | 41.2 µM | 6.7 ± 0.5 µM | 55.4 µM | – | – | – | –
2 | CCCCCc1cc(O)c2c(c1)OC(C)(C)[C@@H]1CCC(C)=C[C@@H]21 [Δ^9-THC, delta-9-tetrahydrocannabinol] | – | – | – | – | – | 10.3 µM | – | – | –
3 | Cc1ccc2c(c1)-c1c(ccc(C(=O)c3ccc(O)cc3O)c1O)OC2(C)C [CPM-1, (2,4-dihydroxyphenyl)(1-hydroxy-6,6,9-trimethyl-6H-benzo[c]chromen-2-yl)methanone] | 98.9% | 7.65 µM | > 100 µM | 1.5 ± 0.2 µM | > 100 µM | – | – | – | –
4 | C=C(C)[C@@H]1CCC(C)=C[C@H]1c1c(O)cc(CCCCC)cc1O [CBD, cannabidiol] | – | – | – | – | – | 7.9 µM | – | – | –
5 | CC1=CC[C@@H]2[C@@H](C1)c1c(ccc(C(=O)c3ccc(O)cc3O)c1O)OC2(C)C [TPM-1, (2,4-dihydroxyphenyl)((6aR,10aR)-1-hydroxy-6,6,9-trimethyl-6a,7,10,10a-tetrahydro-6H-benzo[c]chromen-2-yl)methanone] | 99.3% | 4.3 µM | – | 2.8 ± 0.5 µM | – | – | 59.2 µM | 13.2 µM | –
6 | CC1=CC[C@@H]2[C@@H](C1)c1cc(C(=O)c3ccc(O)cc3O)c(O)cc1OC2(C)C [TPM-2, (2,4-dihydroxyphenyl)((6aR,10aR)-3-hydroxy-6,6,9-trimethyl-6a,7,10,10a-tetrahydro-6H-benzo[c]chromen-2-yl)methanone] | 98.9% | 7.8 µM | – | 6.4 ± 1.5 µM | – | – | 34.9 µM | 45.2 µM | –
7 | CCC(CC)COC(=O)[C@H](C)N[P@](=O)(OC[C@H]1O[C@@](C#N)(c2ccc3c(N)ncnn23)[C@H](O)[C@@H]1O)Oc1ccccc1 [Remdesivir, reference compound] | 99.9% | 2.3 µM | – | – | – | – | 2 µM | > 100 µM | –
8 | Nc1ncnc2c1ncn2[C@@H]1O[C@H](C[C@@H](N)CC[C@H](N)C(=O)O)[C@@H](O)[C@H]1O [Sinefungin] | – | – | – | – | – | – | – | – | 3.4 ± 0.4 µM
